Assay results reported in patent US20050238685A1, “Method of binding a compound to a surface” (priority 2002, published 2005).

What was measured:
[1] = hydrophobin-coated glassy carbon electrode, phosphate buffer pH 7
Method: Glassy carbon electrode was coated with hydrophobin by placing the electrode in a solution of hydrophobin (100 μg/ml) and incubating for 15 minutes, after which the electrode was thoroughly rinsed with water.
The electrode, modified and functionalized with the enzyme, was placed in a three electrode system, including an Ag/AgCl reference electrode and a Pt counter electrode, using phosphate buffer pH 7 (25 mM).
The modified electrode was stored in a sealed container, not in liquid, at 4° C., and tested frequently for activity and response to glucose.

[2] = Glucose oxidase and peroxidase immobilized on hydrophobin-coated TEFLON sheets, o-dianisidine colour assay at 435 nm; assay type: biochemical; conditions: hydrophobin-coated TEFLON sheet (SC3, trSC3, SC4), partner enzyme in solution
Method: The coating was achieved by incubating the TEFLON™ at 25° C. in 2 ml of a 100 μg/ml hydrophobin solution (here SC3, trSC3 and SC4 were used in separate experiments) in a 3 ml glass vial for 15 minutes. The sheets were removed from the hydrophobin solution and were washed with large amounts of water to remove any unbound hydrophobin.
Both sheets were placed in a container containing o-dianisidine and, upon addition of glucose, the solution became colored.
The functionalized TEFLON™ is still active after storage for several weeks at 4° C.

[3] = Cholesterol oxidase immobilized on hydrophobin-coated glassy carbon electrode, current response to cholesterol; assay type: biochemical; conditions: phosphate buffer pH 7
Excerpt: To overcome the poor solubility of cholesterol in water, the cholesterol was solubilized in isopropanol with Triton in phosphate buffer (Ropers, M.-H. et al., 2001, Phys. Chem. Chem. Phys. 3:240-245).

[4] = Different enzymes immobilized via SC3 hydrophobin on TEFLON, spectrophotometry at 412 and 435 nm; assay type: biochemical; conditions: SC3-coated TEFLON
Method: The surface was first coated with SC3 hydrophobin by immersion in the protein aqueous solution (0.3 mg/mL) during approximately 30 minutes. The obtained modified surface was then immersed in an aqueous enzyme solution during approximately 30 minutes. After each step, the TEFLON™ surface was rinsed with an adequate buffer solution. Activity of the immobilized enzymes was followed by spectrophotometry at 412 and 435 nm after immersion of the functionalized surface in the corresponding substrate solution. The optical density of the solution increases after the immersion of the functionalized surface and stays constant after its removal. […] The functionalized TEFLON® was stored at 4° C. in an Eppendorf tube containing a buffer solution.
(Biocatalysts, Wales; final concentration 2.1 mg/mL), lipase from Candida cylindracea (Biocatalysts, Wales; final concentration 0.25 mg/mL), porcine liver esterase (SIGMA; 41 U/mg of solid, final concentration 2.4 mg/mL), bovine pancreas trypsin (SIGMA; 8,750 U/mg of solid).

glucose oxidase
activity of glucose oxidase upon immobilization on the hydrophobin layer [1]: remained active | activity of immobilized enzyme (oxidation of o-dianisidine upon addition of glucose) [2]: absorption at 435 nm was observed

firefly luciferase: firefly luciferase (Roche, cat no. 411523)
activity of enzyme attached to bare wells: not active

cholesterol oxidase
activity of immobilized cholesterol oxidase [3]: remaining active

peroxidase: horseradish peroxidase (SIGMA)
activity of immobilized enzyme (oxidation of o-dianisidine upon addition of glucose) [2]: Coloring of the solution | state of immobilized enzymes (denaturation, desorption) [4]: not denatured and are not desorbed from the surface | function after storage ([4]; 4° C. in buffer solution): still functional after several weeks
